Assay results published in BindingDB's records for doi:10.1021/jm960873x (University of California, 1997).

Experiments:
[1] = Inhibition activity against protein phosphatase 1 (PP1), activity taken from literature
[2] = Observed inhibition activity against protein phosphatase 1 (PP1)
[3] = Observed inhibition activity of the compounds against protein phosphatases 1 (PP1)

Question: With `C/C=C1/C(=O)N[C@@H](C(=O)O)[C@H](C)C(=O)N[C@@H](CCCNC(=N)N)C(=O)N[C@@H](/C=C/C(C)=C/[C@H](C)[C@H](Cc2ccccc2)OC)[C@H](C)C(=O)N[C@@H](C(=O)O)CCC(=O)N1C` [(5R,6S,9S,12S,13S,16R)-2-Eth-(Z)-ylidene-9-(3-guanidino-propyl)-12-((1E,3E)-(5S,6S)-6-methoxy-3,5-dimethyl-7-phenyl-hepta-1,3-dienyl)-1,6,13-trimethyl-3,7,10,14,19-pentaoxo-1,4,8,11,15pentaaza-cyclononadecane-5,16-dicarboxylic acid] as the compound, how does the IC50 [1] read?
Answer: 3 nM

Question: And the IC50 [2]?
Answer: 0.42 nM

Question: With `COC[C@@H]([C@H](O)[C@H](O)C(=O)N[C@H](C)C[C@H](C)c1nc(/C=C/CC2O[C@]3(CC(O)C2C)OC([C@H](C[C@H](O)[C@H](C)[C@H](O)[C@H](C)/C=C(C)/C(C)=C/C=C/C(C)=C\C#N)OC)[C@H](OP(=O)(O)O)C3(C)C)co1)N(C)C` (some centres undefined) [Calyculin C] as the compound, how does the IC50 [3] read?
Answer: 1.5 nM

Question: Which IC50 [3] does the source give for `CO[C@H]([C@H](O)CC(=O)[C@@H](C)[C@@H](O)CC[C@@H](C)[C@@H]1O[C@]2(CC[C@@H](C)[C@H](CC[C@H](C)C(C)=O)O2)CC[C@@H]1C)[C@H](OC(=O)C[C@@H](O)C1=C(C)C(=O)OC1=O)C(C)C` [TAUTOMYCIN] here?
Answer: 0.67 nM
